{
  "source": "patent US6717015B2",
  "about": "(priority 2002, dated 2004)",
  "key": {"[1]": {"assay": "Water uptake / hygroscopicity on storage at 40° C. and 75% relative humidity"}, "[2]": {"assay": "Water uptake on exposure to air for 13 days"}},
  "note": "Where two headings read alike, the source gives them in different places.",
  "data": [
    {"smiles": "COc1ccc(C(CN(C)C)C2(O)CCCCC2)cc1", "note": "(racemic) [Example 4A, Venlafaxine Besylate Anhydrate]", "values": [
      {"measurement": "water content after storage (K. Fischer)", "setting": "[1]; 3 days at 40° C. and 75% relative humidity", "value": 4, "unit": "%"},
      {"measurement": "hygroscopicity", "setting": "[1]; listed as Anhydrous (+/−)-venlafaxine besylate", "value": "hygroscopic"}
    ]},
    {"smiles": "COc1ccc(C(CN(C)C)C2(O)CCCCC2)cc1", "note": "(racemic) [venlafaxine besylate monohydrate]", "values": [
      {"measurement": "uptake of water after storage", "setting": "[1]; 40° C., relative humidity 75%", "value": "No uptake of water"},
      {"measurement": "hygroscopicity", "setting": "[1]; besylate monohydrate", "value": "substantially non-hygroscopic"}
    ]},
    {"smiles": "COc1ccc(C(CN(C)C)C2(O)CCCCC2)cc1", "note": "(single isomer, unassigned; (+)) [Example 6, (+)-Isomer of Venlafaxine Besylate]", "values": [
      {"measurement": "hygroscopicity", "setting": "[1]", "value": "less hygroscopic"}
    ]},
    {"smiles": "COc1ccc(C(CN(C)C)C2(O)CCCCC2)cc1", "note": "(single isomer, unassigned; (-)) [Example 5, (−)-Isomer of Venlafaxine Besylate]", "values": [
      {"measurement": "hygroscopicity", "setting": "[1]", "value": "less hygroscopic"}
    ]},
    {"smiles": "COc1ccc(C(CN(C)C)C2(O)CCCCC2)cc1", "note": "(centres unmarked) [Example 4B, Amorphous Venlafaxine Besylate]", "values": [
      {"measurement": "water present after exposure to air (Karl-Fischer)", "setting": "[2]; exposed to air for 13 days", "value": "1 equivalent of water"}
    ]},
    {"smiles": "COc1ccc(C(CN(C)C)C2(O)CCCCC2)cc1", "note": "(centres unmarked) [Example 4D, Less hydrated Venlafaxine Besylate]", "values": [
      {"measurement": "water present after exposure to air (Karl-Fischer)", "setting": "[2]; exposed to air for 13 days at room temperature", "value": "1 molar equivalent of water"}
    ]}
  ]
}
